Molecular target: HCV RdRp (NS5B) (UniProt P26663)
Assay type: biochemical, hepatitis C virus

Chain of HCV RdRp (NS5B) (P26663 whole entry, looked up): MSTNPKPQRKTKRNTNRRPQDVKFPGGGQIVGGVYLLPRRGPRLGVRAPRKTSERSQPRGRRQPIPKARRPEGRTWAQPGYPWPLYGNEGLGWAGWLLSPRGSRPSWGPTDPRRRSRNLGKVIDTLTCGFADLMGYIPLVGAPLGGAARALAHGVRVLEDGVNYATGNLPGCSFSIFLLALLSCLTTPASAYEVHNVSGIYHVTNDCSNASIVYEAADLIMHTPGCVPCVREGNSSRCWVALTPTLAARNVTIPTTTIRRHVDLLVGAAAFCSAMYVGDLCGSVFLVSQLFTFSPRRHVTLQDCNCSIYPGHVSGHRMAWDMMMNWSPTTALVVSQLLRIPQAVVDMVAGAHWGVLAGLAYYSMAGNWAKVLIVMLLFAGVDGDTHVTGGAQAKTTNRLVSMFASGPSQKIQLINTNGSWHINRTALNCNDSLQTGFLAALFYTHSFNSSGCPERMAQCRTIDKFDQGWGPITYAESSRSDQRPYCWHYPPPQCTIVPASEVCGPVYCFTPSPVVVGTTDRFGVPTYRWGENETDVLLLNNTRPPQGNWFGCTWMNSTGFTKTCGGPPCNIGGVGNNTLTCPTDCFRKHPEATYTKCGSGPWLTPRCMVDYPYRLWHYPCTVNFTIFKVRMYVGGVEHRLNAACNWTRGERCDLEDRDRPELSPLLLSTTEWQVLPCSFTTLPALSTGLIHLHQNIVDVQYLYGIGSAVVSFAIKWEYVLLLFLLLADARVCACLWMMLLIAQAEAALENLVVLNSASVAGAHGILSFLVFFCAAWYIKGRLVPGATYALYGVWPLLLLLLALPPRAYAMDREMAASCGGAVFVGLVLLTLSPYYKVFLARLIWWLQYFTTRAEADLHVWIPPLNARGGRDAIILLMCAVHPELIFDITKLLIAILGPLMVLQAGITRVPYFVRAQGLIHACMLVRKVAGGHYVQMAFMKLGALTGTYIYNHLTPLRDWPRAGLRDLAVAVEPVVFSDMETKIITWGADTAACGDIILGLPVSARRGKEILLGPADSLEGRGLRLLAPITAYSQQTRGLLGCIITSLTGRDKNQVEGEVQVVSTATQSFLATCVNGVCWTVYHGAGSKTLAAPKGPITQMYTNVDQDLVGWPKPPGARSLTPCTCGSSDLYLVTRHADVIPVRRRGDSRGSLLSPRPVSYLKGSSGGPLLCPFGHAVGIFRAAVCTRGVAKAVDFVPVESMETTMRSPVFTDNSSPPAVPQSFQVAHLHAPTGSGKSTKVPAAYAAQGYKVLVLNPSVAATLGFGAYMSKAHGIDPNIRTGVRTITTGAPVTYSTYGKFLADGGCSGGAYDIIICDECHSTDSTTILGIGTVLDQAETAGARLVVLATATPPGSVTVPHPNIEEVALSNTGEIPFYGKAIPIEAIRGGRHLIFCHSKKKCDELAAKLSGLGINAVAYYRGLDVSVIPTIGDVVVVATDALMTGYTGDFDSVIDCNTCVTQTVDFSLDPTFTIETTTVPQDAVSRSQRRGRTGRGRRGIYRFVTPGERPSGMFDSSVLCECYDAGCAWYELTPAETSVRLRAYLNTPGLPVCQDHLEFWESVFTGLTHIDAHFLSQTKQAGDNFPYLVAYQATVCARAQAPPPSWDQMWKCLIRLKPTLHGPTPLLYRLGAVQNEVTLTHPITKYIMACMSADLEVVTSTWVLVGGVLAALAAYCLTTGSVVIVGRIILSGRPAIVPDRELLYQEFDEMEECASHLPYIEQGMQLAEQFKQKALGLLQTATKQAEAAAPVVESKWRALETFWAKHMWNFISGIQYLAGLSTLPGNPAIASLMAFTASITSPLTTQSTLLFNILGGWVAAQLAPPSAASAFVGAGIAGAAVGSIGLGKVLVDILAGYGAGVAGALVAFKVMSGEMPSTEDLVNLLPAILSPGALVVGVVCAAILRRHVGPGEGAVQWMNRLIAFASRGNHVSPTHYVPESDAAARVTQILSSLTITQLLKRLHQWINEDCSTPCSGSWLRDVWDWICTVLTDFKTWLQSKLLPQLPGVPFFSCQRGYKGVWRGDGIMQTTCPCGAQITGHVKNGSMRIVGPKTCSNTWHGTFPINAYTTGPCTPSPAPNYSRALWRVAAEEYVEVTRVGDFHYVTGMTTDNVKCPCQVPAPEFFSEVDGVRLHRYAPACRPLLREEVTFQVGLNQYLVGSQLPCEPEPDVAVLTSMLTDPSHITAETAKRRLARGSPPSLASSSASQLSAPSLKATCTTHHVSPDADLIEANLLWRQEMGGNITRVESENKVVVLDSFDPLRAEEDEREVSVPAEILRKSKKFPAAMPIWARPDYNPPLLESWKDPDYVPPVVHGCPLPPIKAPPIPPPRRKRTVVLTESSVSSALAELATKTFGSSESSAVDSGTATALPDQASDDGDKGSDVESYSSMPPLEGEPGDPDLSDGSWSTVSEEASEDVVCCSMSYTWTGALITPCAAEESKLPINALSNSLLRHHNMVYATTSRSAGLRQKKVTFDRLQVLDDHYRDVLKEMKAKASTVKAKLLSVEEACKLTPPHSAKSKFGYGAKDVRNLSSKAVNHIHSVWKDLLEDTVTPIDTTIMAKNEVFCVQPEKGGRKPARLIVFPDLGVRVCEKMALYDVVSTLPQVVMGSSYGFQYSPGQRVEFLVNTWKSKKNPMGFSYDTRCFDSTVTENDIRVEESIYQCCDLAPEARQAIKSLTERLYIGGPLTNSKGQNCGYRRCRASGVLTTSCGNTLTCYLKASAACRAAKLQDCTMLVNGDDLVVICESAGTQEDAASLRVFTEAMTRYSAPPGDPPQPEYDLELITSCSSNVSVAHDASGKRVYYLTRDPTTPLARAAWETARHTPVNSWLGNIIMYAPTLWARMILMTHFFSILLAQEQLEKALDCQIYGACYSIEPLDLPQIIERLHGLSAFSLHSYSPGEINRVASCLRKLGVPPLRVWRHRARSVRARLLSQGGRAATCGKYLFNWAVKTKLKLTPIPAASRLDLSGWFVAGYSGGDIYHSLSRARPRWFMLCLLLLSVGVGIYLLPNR

## Cc1ccc(NC(=O)C(CCCCN)NC(=O)C(N)Cc2cccc3ccccc23)cc1 [Compound 77, (S)-6-AMINO-2-(2-(S)-AMINO-3-NAPHTHALEN-1-YL-PROPIONYLAMINO)-HEXANOIC ACID P-TOLYLAMIDE]
  IC50: > 50 µM

## Cc1ccc(NC(=O)[C@H](CCCCN)NC(=O)Nc2cccc3c2CCCC3)cc1 [Compound 78, (S)-6-AMINO-2-[3-(5,6,7,8-TETRAHYDRO-NAPHTHALEN-1-YL)-UREIDO]-HEXANOIC ACID P-TOLYLAMIDE]
  IC50: > 50 µM

## Cc1ccc(NC(=O)C(CCCCN)NC(=O)c2cccc3ccccc23)cc1 (centres unmarked) [Compound 79, NAPHTHALENE-1-CARBOXYLIC ACID (5-AMINO-1-P-TOLYLCARBAMOYL-PENTYL)-AMIDE]
  IC50: > 50 µM

## NCCCC[C@H](NC(=O)OCC1c2ccccc2-c2ccccc21)C(=O)Nc1cccc(F)c1 [Compound 80, (S)-[5-AMINO-1-(3-FLUORO-PHENYLCARBAMOYL)-PENTYL]-CARBAMIC ACID 9H-FLUOREN-9-YLMETHYL ESTER]
  IC50: > 50 µM

## NCCCC[C@H](NC(=O)OCC1c2ccccc2-c2ccccc21)C(=O)Nc1ccc2c(c1)CCC2 [Compound 81, (S)-[5-AMINO-1-(INDAN-5-YLCARBAMOYL)-PENTYL]-CARBAMIC ACID 9H-FLUOREN-9-YLMETHYL ESTER]
  IC50: 10 to 50 µM

## NCCCC[C@H](NC(=O)OCC1c2ccccc2-c2ccccc21)C(=O)Nc1ccc2[nH]ncc2c1 [Compound 82, (S)-[5-AMINO-1-(1H-INDAZOL-5-YLCARBAMOYL)-PENTYL]-CARBAMIC ACID 9H-FLUOREN-9-YLMETHYL ESTER]
  IC50: > 50 µM

## COc1ccc(NC(=O)[C@H](CCCCN)NC(=O)OCC2c3ccccc3-c3ccccc32)cc1 [Compound 83, (S)-[5-AMINO-1-(4-METHOXY-PHENYLCARBAMOYL)-PENTYL]-CARBAMIC ACID 9H-FLUOREN-9-YLMETHYL ESTER]
  IC50: 10 to 50 µM

## Cc1ccc(NC(=O)C(N)CNC(=O)OCC2c3ccccc3-c3ccccc32)cc1 [Compound 84, (R)-(2-AMINO-2-P-TOLYLCARBAMOYL-ETHYL)-CARBAMIC ACID 9H-FLUOREN-9-YLMETHYL ESTER]
  IC50: > 50 µM

## Cc1ccc(NC(=O)C2CCCN2C(=O)OCC2c3ccccc3-c3ccccc32)cc1 [Compound 85, (S)-2-P-TOLYLCARBAMOYL-PYRROLIDINE-1-CARBOXYLIC ACID 9H-FLUOREN-9-YLMETHYL ESTER]
  IC50: > 50 µM

## Cc1ccc(NC(=O)C2CCCN2C(=O)OCC2c3ccccc3-c3ccccc32)cc1 [Compound 86, (R)-2-P-TOLYLCARBAMOYL-PYRROLIDINE-1-CARBOXYLIC ACID 9H-FLUOREN-9-YLMETHYL ESTER]
  IC50: > 50 µM

## Cc1ccc(NC(=O)C2CC(O)CN2C(=O)OCC2c3ccccc3-c3ccccc32)cc1 [Compound 87, (4R,S)-4-HYDROXY-2-P-TOLYLCARBAMOYL-PYRROLIDINE-1-CARBOXYLIC ACID 9H-FLUOREN-9-YLMETHYL ESTER]
  IC50: > 50 µM

## NCCCC[C@H](NC(=O)Cn1cnc2c(NC(=O)c3ccccc3)ncnc21)C(=O)N(Cc1ccccc1)C1CCCCC1 [Compound 88, (S)-N-(9-{[5-AMINO-1-(BENZYL-CYCLOHEXYL-CARBAMOYL)-PENTYLCARBAMOYL]-METHYL}-9H-PURIN-6-YL)-BENZAMIDE]
  IC50: > 50 µM

## Cc1ccc(NC(=O)C(CCCCN)NC(=O)CCc2c[nH]c3ccccc23)cc1 [Compound 89, (S)-6-AMINO-2-(3-1H-INDOL-3-YL-PROPIONYLAMINO)-HEXANOIC ACID P-TOLYLAMIDE]
  IC50: > 50 µM

## CNC(Cc1c[nH]c2ccccc12)C(=O)NC(CCCCN)C(=O)Nc1ccc(C)cc1 [Compound 90, (S)-6-AMINO-2-[3-(1H-INDOL-3-YL)-2-(S)-METHYLAMINO-PROPIONYLAMINO]-HEXANOIC ACID P-TOLYLAMIDE]
  IC50: > 50 µM

## Cc1ccc(NC(=O)C(CCCCN)NC(=O)Cc2cccc3ccccc23)cc1 [Compound 91, (S)-6-AMINO-2-(2-NAPHTHALEN-1-YL-ACETYLAMINO)-HEXANOIC ACID P-TOLYLAMIDE]
  IC50: > 50 µM

## Cc1ccc(N(C)C(=O)C(CCCCN)NC(=O)OCC2c3ccccc3-c3ccccc32)cc1 [Compound 92, (S)-[5-AMINO-1-(METHYL-P-TOLYL-CARBAMOYL)-PENTYL]-CARBAMIC ACID 9H-FLUOREN-9-YLMETHYL ESTER]
  IC50: > 50 µM

## COc1ccc(-c2ccccc2)cc1NC(=O)NC(CCCCN)C(=O)Nc1ccc(C)cc1 [Compound 93, (S)-6-AMINO-2-[3-(4-METHOXY-BIPHENYL-3-YL)-UREIDO]-HEXANOIC ACID P-TOLYLAMIDE]
  IC50: > 50 µM

## Cc1ccc(NC(=O)C(CCCCN)NC(=O)Nc2cc(C(F)(F)F)cc(C(F)(F)F)c2)cc1 [Compound 95, (S)-6-AMINO-2-[3-(3,5-BIS-TRIFLUOROMETHYL-PHENYL)-UREIDO]-HEXANOIC ACID P-TOLYLAMIDE]
  IC50: 10 to 50 µM

## Cc1ccc(NC(=O)C(CCCCN)NC(=O)NC(C)c2cccc3ccccc23)cc1 [Compound 96, (R,S)-6-AMINO-2-[3-(1-NAPHTHALEN-1-YL-ETHYL)-UREIDO]-HEXANOIC ACID P-TOLYLAMIDE]
  IC50: > 50 µM

## Cc1ccc(NC(=O)C(CCCCN)NC(=O)NC(C)c2cccc3ccccc23)cc1 [Compound 97, (S,S)-6-AMINO-2-[3-(1-NAPHTHALEN-1-YL-ETHYL)-UREIDO]-HEXANOIC ACID P-TOLYLAMIDE]
  IC50: > 50 µM

## Cc1ccc(NC(=O)[C@H](CCCCN)NC(=O)Nc2cccc(Oc3ccccc3)c2)cc1 [Compound 98, (S)-6-AMINO-2-[3-(3-PHENOXY-PHENYL)-UREIDO]-HEXANOIC ACID P-TOLYLAMIDE]
  IC50: > 50 µM

## Cc1ccc(NC(=O)[C@H](CCCCN)NC(=O)NS(=O)(=O)c2ccccc2)cc1 [Compound 99, (S)-6-AMINO-2-[PHENYLSULFONAMIDE-UREIDO]-HEXANOIC ACID P-TOLYLAMIDE]
  IC50: > 50 µM

## Cc1ccc(NC(=O)C(CCCCN)NC(=O)C(N)Cc2c[nH]c3ccccc23)cc1 [Compound 100, (S,S)-6-AMINO-2-[2-AMINO-3-(1H-INDOL-3-YL)-PROPIONYLAMINO]-HEXANOIC ACID P-TOLYLAMIDE]
  IC50: > 50 µM

## Cc1ccc(NC(=O)C(CCCN)NC(=O)OCC2c3ccccc3-c3ccccc32)cc1 [Compound 101, (S)-(4-AMINO-1-P-TOLYLCARBAMOYL-BUTYL)-CARBAMIC ACID 9H-FLUOREN-9-YLMETHYL ESTER]
  IC50: > 50 µM

## Cc1ccc(NC(=O)C(CCCN)NC(=O)OCC2c3ccccc3-c3ccccc32)cc1 [Compound 102, (R)-(4-AMINO-1-P-TOLYLCARBAMOYL-BUTYL)-CARBAMIC ACID 9H-FLUOREN-9-YLMETHYL ESTER]
  IC50: > 50 µM

## Cc1ccc(NC(=O)C(CN)NC(=O)OCC2c3ccccc3-c3ccccc32)cc1 [Compound 103, (S)-(2-AMINO-1-P-TOLYLCARBAMOYL-ETHYL)-CARBAMIC ACID 9H-FLUOREN-9-YLMETHYL ESTER]
  IC50: > 50 µM

## Cc1ccc(NC(=O)C(CCCCCN)NC(=O)OCC2c3ccccc3-c3ccccc32)cc1 [Compound 104, (S)-(6-AMINO-1-P-TOLYLCARBAMOYL-HEXYL)-CARBAMIC ACID 9H-FLUOREN-9-YLMETHYL ESTER]
  IC50: < 10 µM

## CC(C)(C)c1ccc(NC(=O)[C@H](CCCCN)NC(=O)OCC2c3ccccc3-c3ccccc32)cc1 [Compound 105, (S)-[5-AMINO-1-(4-TERT-BUTYL-PHENYLCARBAMOYL)-PENTYL]-CARBAMIC ACID 9H-FLUOREN-9-YLMETHYL ESTER]
  IC50: 10 to 50 µM

## CCN(CC)c1ccc(NC(=O)[C@H](CCCCN)NC(=O)OCC2c3ccccc3-c3ccccc32)cc1 [Compound 106, (S)-[5-AMINO-1-(4-DIETHYLAMINO-PHENYLCARBAMOYL)-PENTYL]-CARBAMIC ACID 9H-FLUOREN-9-YLMETHYL ESTER]
  IC50: > 50 µM

## NCCCC[C@H](NC(=O)OCC1c2ccccc2-c2ccccc21)C(=O)Nc1ccc(C2CCCCC2)cc1 [Compound 107, (S)-[5-AMINO-1-(4-CYCLOHEXYL-PHENYLCARBAMOYL)-PENTYL]-CARBAMIC ACID 9H-FLUOREN-9-YLMETHYL ESTER]
  IC50: < 10 µM

## Cc1ccc(NC(=O)C(CCN)NC(=O)OCC2c3ccccc3-c3ccccc32)cc1 [Compound 108, (S)-(3-AMINO-1-P-TOLYLCARBAMOYL-PROPYL)-CARBAMIC ACID 9H-FLUOREN-9-YLMETHYL ESTER]
  IC50: > 50 µM

## Cc1ccc(NC(=O)C2(NC(=O)OCC3c4ccccc4-c4ccccc43)CCCNC2)cc1 (centres unmarked) [Compound 109, (3-P-TOLYLCARBAMOYL-PIPERIDIN-3-YL)-CARBAMIC ACID 9H-FLUOREN-9-YLMETHYL ESTER]
  IC50: > 50 µM

## Cc1ccc(NC(=O)C(CCCC[N+](C)(C)C)NC(=O)OCC2c3ccccc3-c3ccccc32)cc1 (centres unmarked) [Compound 110]
  IC50: > 50 µM

## Cc1ccc(NC(=O)C(CCCNC(=N)N(C)C)NC(=O)OCC2c3ccccc3-c3ccccc32)cc1 [Compound 111, (S)-[4-(3,3-DIMETHYL-GUANIDINO)-1-P-TOLYLCARBAMOYL-BUTYL]-CARBAMIC ACID 9H-FLUOREN-9-YLMETHYL ESTER]
  IC50: > 50 µM

## CSCCC(NC(=O)OCC1c2ccccc2-c2ccccc21)C(=O)Nc1ccc(C)cc1 (centres unmarked) [Compound 112]
  IC50: > 50 µM

## Cc1ccc(NC(=O)C(CCCNC(N)=O)NC(=O)OCC2c3ccccc3-c3ccccc32)cc1 [Compound 113, (S)-(1-P-TOLYLCARBAMOYL-4-UREIDO-BUTYL)-CARBAMIC ACID 9H-FLUOREN-9-YLMETHYL ESTER]
  IC50: > 50 µM

## Cc1ccc(NC(=O)[C@@H](N)CCCCN)cc1 [Compound 114, (S)-2,6-DIAMINO-HEXANOIC ACID P-TOLYLAMIDE]
  IC50: > 50 µM

## Cc1ccc(NC(=O)C(CNC(=O)CN)NC(=O)OCC2c3ccccc3-c3ccccc32)cc1 [Compound 115, (S)-[2-(2-AMINO-ACETYLAMINO)-1-P-TOLYLCARBAMOYL-ETHYL]-CARBAMIC ACID 9H-FLUOREN-9-YLMETHYL ESTER]
  IC50: 10 to 50 µM

## NCCCCC[C@H](NC(=O)OCC1c2ccccc2-c2ccccc21)C(=O)Nc1ccc(C2CCCCC2)cc1 [Compound 116, (S)-[6-AMINO-1-(4-CYCLOHEXYL-PHENYLCARBAMOYL)-HEXYL]-CARBAMIC ACID 9H-FLUOREN-9-YLMETHYL ESTER]
  IC50: < 10 µM

## Cc1ccc(NC(=O)[C@H](CCCCN)NC(=O)Nc2cccc(Br)c2)cc1 [Compound 118, (S)-6-AMINO-2-[3-(3-BROMO-PHENYL)-UREIDO]-HEXANOIC ACID P-TOLYLAMIDE]
  IC50: > 50 µM

## Cc1ccc(NC(=O)C2CCCCN2C(=O)OCC2c3ccccc3-c3ccccc32)cc1 [Compound 122, (S)-2-P-TOLYLCARBAMOYL-PIPERIDINE-1-CARBOXYLIC ACID 9H-FLUOREN-9-YLMETHYL ESTER]
  IC50: > 50 µM

Source: patent publication US20070021434A1, “NON-NUCLEOSIDE ANTI-HEPACIVIRUS AGENTS AND USES THEREOF” (Migenix Inc., priority 2005, published 2007)
